According to publication PMC7369900 (International Journal of Molecular Sciences, 2020):
Converted amounts (≈) assume the structure as drawn.

Tests used:
S. aureus ATCC 29213 = assay: microbe, parasite or virus in culture; format: cell-based, Staphylococcus aureus; conditions: S. aureus ATCC 29213, MHB
Method: (§1) The antibacterial activity of TP10-NH2-based conjugates, as well as its constituents, was evaluated by microdilution assay in Mueller Hinton broth, MHB (Table 1). […] There are, however, some exceptions. […] Its activity against two other tested bacteria was somewhat lower though.
(§2) The antibacterial activity (bacteriostatic: MIC and bactericidal: MBC) of the tested compounds was determined in MHB (Mueller Hinton Broth, Sigma Aldrich, St. Louis, MO, USA) using a serial two-fold dilution method in 96-well microtiter plates according to CLSI recommendations, described in M07-A10 document. The exact conditions have been described previously. All experiments were performed in three replicates. The MIC90 and MIC50 values were defined as the concentrations of compounds tested that caused a 90% or 50% reduction of growth, respectively, comparing to the drug-free control.

[1] = tested on: S. epidermidis ATCC 12228; assay: microbe, parasite or virus in culture; format: cell-based, Staphylococcus epidermidis; conditions: S. epidermidis ATCC 12228, MHB
Method: as §1, §2

E. coli ATCC 25922 = assay: microbe, parasite or virus in culture; format: cell-based, Escherichia coli; conditions: E. coli ATCC 25922, MHB
Method: as §1, §2

P. aeruginosa ATCC 27853 = assay: microbe, parasite or virus in culture; format: cell-based, Pseudomonas aeruginosa; conditions: Pseudomonas aeruginosa, ATCC27853; P. aeruginosa ATCC 27853, MHB
Method: as §1, §2

[2] = tested on: Gram-positive and Gram-negative bacteria; format: cell-based; conditions: MHB, four bacteria
Method: as §1, §2

E. coli ATCC 25,922 = assay: Resistance induction by serial passage on MHA plates; format: cell-based, Escherichia coli; conditions: passaged with CIP 0.012 μM or 3 0.012 μM
S. aureus ATCC 29,213 = assay: as above; format: cell-based, Staphylococcus aureus; conditions: passaged with CIP 0.1875 μM or 3 0.375 μM
[3] = target: T1, yeast DNA topoisomerase II (Saccharomyces cerevisiae, UniProt P06786); assay: biochemical; format: biochemical; conditions: 500 µM
T1 construct: purchased Inspiralis (Norwich, UK)
T1 sequence (P06786 whole entry): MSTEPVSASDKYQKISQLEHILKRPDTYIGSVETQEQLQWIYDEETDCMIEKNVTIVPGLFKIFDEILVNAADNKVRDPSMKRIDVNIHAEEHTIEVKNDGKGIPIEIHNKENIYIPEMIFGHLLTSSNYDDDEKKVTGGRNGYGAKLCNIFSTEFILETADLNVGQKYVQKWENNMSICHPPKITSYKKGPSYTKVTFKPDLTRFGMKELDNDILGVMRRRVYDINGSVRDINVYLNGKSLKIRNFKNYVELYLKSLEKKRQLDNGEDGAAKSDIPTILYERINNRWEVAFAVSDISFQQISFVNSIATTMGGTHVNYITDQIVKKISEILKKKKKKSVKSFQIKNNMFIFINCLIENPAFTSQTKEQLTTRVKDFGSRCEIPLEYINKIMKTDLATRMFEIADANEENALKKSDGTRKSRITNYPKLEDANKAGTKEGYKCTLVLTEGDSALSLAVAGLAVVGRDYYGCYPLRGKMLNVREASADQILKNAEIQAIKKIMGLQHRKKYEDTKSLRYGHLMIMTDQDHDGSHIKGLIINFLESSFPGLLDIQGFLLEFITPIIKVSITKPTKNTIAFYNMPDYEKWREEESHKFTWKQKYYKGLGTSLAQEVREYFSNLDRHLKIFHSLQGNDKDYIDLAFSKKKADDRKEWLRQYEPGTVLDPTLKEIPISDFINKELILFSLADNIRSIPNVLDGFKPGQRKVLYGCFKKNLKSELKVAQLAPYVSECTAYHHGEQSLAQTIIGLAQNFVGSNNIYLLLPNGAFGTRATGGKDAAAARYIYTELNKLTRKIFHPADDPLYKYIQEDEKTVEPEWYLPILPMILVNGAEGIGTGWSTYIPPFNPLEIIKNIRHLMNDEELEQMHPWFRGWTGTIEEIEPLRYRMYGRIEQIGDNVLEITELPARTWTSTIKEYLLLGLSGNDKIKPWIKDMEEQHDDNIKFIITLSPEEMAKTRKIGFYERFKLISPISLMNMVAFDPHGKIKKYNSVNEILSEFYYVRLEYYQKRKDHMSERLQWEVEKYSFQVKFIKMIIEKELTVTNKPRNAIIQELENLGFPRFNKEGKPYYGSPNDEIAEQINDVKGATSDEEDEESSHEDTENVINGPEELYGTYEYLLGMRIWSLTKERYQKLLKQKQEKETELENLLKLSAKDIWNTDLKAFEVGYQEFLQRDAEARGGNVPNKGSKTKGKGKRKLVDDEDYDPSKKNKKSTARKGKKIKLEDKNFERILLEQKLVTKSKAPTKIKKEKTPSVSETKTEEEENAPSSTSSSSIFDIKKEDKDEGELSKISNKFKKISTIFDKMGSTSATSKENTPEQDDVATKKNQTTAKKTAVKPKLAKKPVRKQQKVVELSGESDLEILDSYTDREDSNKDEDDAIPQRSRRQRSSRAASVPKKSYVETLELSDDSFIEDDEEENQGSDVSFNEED

HEK 293 [4] = assay: cells; format: cell-based, human; conditions: HEK 293, 72 h, MTT
Method: (§3) Among the conjugates, LVXC-S-S-CTP10-NH2 (5) was the least cytotoxic. […] In the case of HEK 293 and LLC-PK1 cells, the IC50 values of 5 were nearly four times higher. […] Additionally, we noted that the cancer cells Hep G2 were less sensitive to the action of the given compounds than the non-cancer cells (HEK 293 and LLC-PK1).
(§4) Cytotoxicity was assessed against three mammalian cell lines: LLC-PK1, Hep G2, and HEK 293. Multiwell (96–well) plates were seeded at 7000 cells/well in Medium 199 supplemented with 7.5% FBS, MEM Eagle’s medium supplemented with 10% FBS, or DMEM medium supplemented with 10% FBS, respectively. All media were supplemented with L-glutamine and antibiotics (penicillin/streptomycin). Cells were allowed to attach overnight. Drugs were dissolved in cell culture medium and added to wells in 100-µL aliquots of 2× concentrated solutions, in triplicates. To control wells, 100 µL of the medium were added. Cells were incubated with the studied compounds for 72 h at 37 °C and 95%/5% or 90%/10% (HEK 293 cells) CO2 atmosphere. Then, 20-µL aliquots of MTT solution in PBS (4 mg/mL) were added to all wells and plates were incubated further for 3 h in 37 °C. Formazan crystals formed were dissolved in 100 µL of DMSO and the absorbance of the solutions was measured using a multiwell plate reader (Spark, Tecan, Männedorf, Switzerland) at λ = 540 nm. Cytotoxicity was determined compared to the drug-free control. All experiments were performed in triplicates.

Hep G2 = assay: cells; format: cell-based, human; conditions: Hep G2, 72 h, MTT
Method: as §3, §4

LLC-PK1 = assay: cells; format: cell-based, pig; conditions: LLC-PK1, 72 h, MTT
Method: as §3, §4

HEK 293 [5] = assay: ROS generation (CM-H2DCFDA, flow cytometry); format: cell-based, human
Method: (§5) In the positive controls treated with H2O2, the fraction of ROS-positive cells exceeded 75%. […] Strikingly, in HL-60, a biologically significant effect was observed almost immediately (after 15 min of incubation). The same was noted after 1 h in the HEK 293 cell line. […] Similarly, conjugates 4 and 5 generated ROS at the low level (less than 15% for HL-60 and less than 20% for HEK 293) (manuscript in preparation). […] For HL-60, the critical level of ROS was noted after 15 min of incubation.
(§6) ROS generation activity was evaluated as described previously. Briefly, HEK 293 cells were seeded on 35-mm Petri dishes in the amount of 15,000 cells per plate for 24 h in DMEM medium. […] Positive controls contained 250 µM H2O2, while negative controls were without any additions. After 0.5, 2.5, 5.5, and 24 h of incubation at 37 °C, the CM-H2DCFDA molecular probe (Thermo Fischer Scientific, Waltham, USA) was added to the plates and incubation was continued for another 0.5 h. The HEK 293 cells were detached with 0.05% trypsin solution in PBS and HBSS (Hank’s Balanced Salt Solution) and suspended in fresh DMEM medium. All samples were additionally stained with 7-AAD (7-aminoactinomycin D, 0.8 µg/mL) and immediately analysed with a Guava easyCyte flow cytometer (Merc, Burlington, USA). The determinations were performed in triplicates.

HL-60 = assay: ROS generation (CM-H2DCFDA, flow cytometry); format: cell-based, human
Method: as §5, §6

human red blood cells = assay: Hemolysis assay; conditions: for MHC50 (concentration causing 50% hemolysis): 1 h, 37 °C
HL-60 and HEK 293 cells = assay: ROS generation, statements not split by cell line; format: cell-based, human; conditions: cell line not specified
Method: as §5, §6

[6] = tested on: C. albicans Δopt1Δopt5Δptr2Δptr22
[7] = Staphylococcus aureus, ATCC29213
[8] = Staphylococcus epidermidis, ATCC12228

`O=C(O)c1cn(C2CC2)c2cc(N3CCNCC3)c(F)cc2c1=O` [CIP, ciprofloxacin] gave an MIC50 (S. aureus ATCC 29213; [7]) of 0.2 µM (≈ 0.0663 µg/mL), an MIC90 (S. aureus ATCC 29213; [7]) of 0.2 µM (≈ 0.0663 µg/mL) and an MIC50 [1, 8] of 0.8 µM (≈ 0.265 µg/mL). The MIC90 [1, 8] was 1.6 µM (≈ 0.53 µg/mL), the MIC50 (E. coli ATCC 25922; Escherichia coli, ATCC25922) was less than 0.0125 µM and the MIC90 (E. coli ATCC 25922; Escherichia coli, ATCC25922) was 0.0125 µM (≈ 0.00414 µg/mL). For the same compound, the MIC50 (P. aeruginosa ATCC 27853) was 0.4 µM (≈ 0.133 µg/mL), the MIC90 (P. aeruginosa ATCC 27853) was 0.4 µM (≈ 0.133 µg/mL) and the “MIC50 range over tested bacteria” value [2] was 0.0125 to 0.8 µM. For the same compound, the “MIC90, upper end of range over tested bacteria” value [2] was no more than 1.6 µM, the “Increase of MIC after the 5th passage” value (E. coli ATCC 25,922) was 8 fold and the “Increase of MIC after the 10th passage” value (E. coli ATCC 25,922) was 8 fold. The “Increase of MIC compared to the control after passaging” value (S. aureus ATCC 29,213) was 2 fold, the “Topoisomerase II inhibition at the highest used concentration” value [3] was “residual activity” and the IC50 (HEK 293 [4]; Homo sapiens, HEK293) was greater than 200 µM. For the same compound, the IC50 (Hep G2; Homo sapiens, HepG2) was greater than 200 µM, the IC50 (LLC-PK1; Sus scrofa) was greater than 200 µM and the “Incubation time at which significant ROS effect was noted” value (HEK 293 [5]; human, 500 µM) was 1 h. For the same compound, the “Incubation time at which significant/critical ROS level was noted” value (HL-60; human, 100 µM) was 15 min, the “Dot plot quadrant LB” value (HL-60; human, 3 h, 100 µM) was 96.2 ± 2.6 and the “Dot plot quadrant LT” value (HL-60; human, 3 h, 100 µM) was 1.1 ± 1.5. The “Dot plot quadrant RB” value (HL-60; human, 3 h, 100 µM) was 2.6 ± 1.6, the “Dot plot quadrant RT” value (HL-60; human, 3 h, 100 µM) was 0.7 ± 0.7 and the “Dot plot quadrant LB” value (HL-60; human, 6 h, 100 µM) was 97.5 ± 1.2. The “Dot plot quadrant LT” value (HL-60; human, 6 h, 100 µM) was 0.4 ± 0.3, the “Dot plot quadrant RB” value (HL-60; human, 6 h, 100 µM) was 2.1 ± 1.3 and the “Dot plot quadrant RT” value (HL-60; human, 6 h, 100 µM) was 0.0 ± 0.0. The “Dot plot quadrant LB” value (HL-60; human, 24 h, 100 µM) was 99.7 ± 0.2, the “Dot plot quadrant LT” value (HL-60; human, 24 h, 100 µM) was 0.1 ± 0.1 and the “Dot plot quadrant RB” value (HL-60; human, 24 h, 100 µM) was 0.2 ± 0.1. The “Dot plot quadrant RT” value (HL-60; human, 24 h, 100 µM) was 0.0 ± 0.0 and the Hemolytic effect (human red blood cells) was “do not cause a hemolytic effect”.

In the case of `CC[C@H](C)[C@H](NC(=O)[C@H](CCCCN)NC(=O)[C@H](CCCCN)NC(=O)[C@H](C)NC(=O)[C@H](CC(C)C)NC(=O)[C@H](C)NC(=O)[C@H](C)NC(=O)[C@H](CC(C)C)NC(=O)[C@H](C)NC(=O)[C@H](CCCCN)NC(=O)[C@H](CC(C)C)NC(=O)[C@H](CC(N)=O)NC(=O)[C@@H](NC(=O)[C@H](CCCCN)NC(=O)CNC(=O)[C@H](CC(C)C)NC(=O)[C@H](CC(C)C)NC(=O)[C@H](Cc1ccc(O)cc1)NC(=O)CNC(=O)[C@H](C)NC(=O)c1cn(C2CC2)c2cc(N3CCNCC3)c(F)cc2c1=O)[C@@H](C)CC)C(=O)N[C@@H](CC(C)C)C(N)=O` [Compound 2, CIP-TP10-NH2], the MIC50 (S. aureus ATCC 29213) is reported as 0.8 µM (≈ 2 µg/mL), the MIC90 (S. aureus ATCC 29213) is reported as 0.8 µM (≈ 2 µg/mL) and the MIC50 [1] is reported as 1.6 µM (≈ 3.99 µg/mL). For the same compound, the MIC90 [1] was 1.6 µM (≈ 3.99 µg/mL), the MIC50 (E. coli ATCC 25922) was 1.6 µM (≈ 3.99 µg/mL) and the MIC90 (E. coli ATCC 25922) was 1.6 µM (≈ 3.99 µg/mL). The “MIC values, range over tested bacteria” value [2] was 0.8 to 3.125 µM, the IC50 (HEK 293 [4]) was 10.4 ± 1.39 µM and the IC50 (Hep G2) was 11.5 ± 2.03 µM. For the same compound, the IC50 (LLC-PK1) was 27.1 ± 1.82 µM, the “ROS HEK 293” value (HEK 293 [5]; positive cells in 24 h, class) was “++ (++ <10% positive cells in 24 h)” and the “ROS HL-60” value (HL-60; positive cells in 24 h, class) was “++ (++ <10% positive cells in 24 h)”. For the same compound, the ROS generation (HL-60 and HEK 293 cells) was “no ROS generation was observed”, the MIC50 (C. albicans SC 5314) was 12.5 µM (≈ 31.2 µg/mL) and the MIC90 (C. albicans SC 5314) was 12.5 µM (≈ 31.2 µg/mL). The MIC50 [6] was 6.25 µM (≈ 15.6 µg/mL), the MIC90 [6] was 12.5 µM (≈ 31.2 µg/mL) and the MIC50 (C. albicans Gu4) was 25 µM (≈ 62.4 µg/mL). For the same compound, the MIC50 (C. glabrata DSM 11226) was greater than 200 µM, the MIC50 (C. krusei DSM 6128) was 50 µM (≈ 125 µg/mL) and the “MHC50 (concentration causing 50% hemolysis)” value (human red blood cells) was 25 µg/mL. The “MHC50 (concentration causing 50% hemolysis)” value (human red blood cells; converted from μg/mL) was ~ 10 μM.
